US8658131B2, “Compounds comprising 4-benzoylpiperidine as a sigma-1-selective ligand” (Washington University, priority 2010, dated 2014)

Experiments:
σ1 receptors = target: T1, σ1 receptors (Mus musculus, UniProt O55242); assay: Ex vivo autoradiography of [11C]14e in mice; details: 30 min post-injection
T1 construct: Ex vivo autoradiography studies were also conducted in mice; from tissue; host or cells: mouse brain (living animal, ex vivo autoradiography)
Method: (§1) Radiosynthesis of [^11C] […] Tissue samples were taken and converted to % ID/g for each organ. Ex vivo autoradiography studies were also conducted in mice at 30 min post-injection of the radiotracer. A microPET imaging study was also performed on a male cynomolgus monkey.

[1] = Biodistribution of [11C]14e in mice; type: in vivo
Method: as §1

T1 sequence (O55242 whole entry): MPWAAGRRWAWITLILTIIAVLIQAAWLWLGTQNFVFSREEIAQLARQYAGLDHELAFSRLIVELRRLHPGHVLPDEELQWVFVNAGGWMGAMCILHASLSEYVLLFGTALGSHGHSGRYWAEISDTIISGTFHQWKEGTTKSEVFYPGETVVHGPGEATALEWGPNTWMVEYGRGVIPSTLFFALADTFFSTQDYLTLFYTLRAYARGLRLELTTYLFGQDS

[11CH3]Oc1ccc(C(=O)C2CCN([C@@H]3CCN(Cc4ccc(F)cc4)C[C@H]3O)CC2)cc1 [[^11C]14e, ((3′R,4′R)-1′-(4-fluorobenzyl)-3′-hydroxy-1,4′-bipiperidin-4-yl)(4-[^11C]methoxyphenyl)methanone]
distribution in brain by autoradiography (σ1 receptors): consistent with the distribution of σ1 receptors in brain
regional brain uptake, cerebellum ([1]; 5 min post-injection): 6.34±0.05 % ID/g
regional brain uptake, cortex ([1]; 5 min post-injection): 6.69±0.72 % ID/g
regional brain uptake, hippocampus ([1]; 5 min post-injection): 5.41±0.30 % ID/g
regional brain uptake, striatum ([1]; 5 min post-injection): 6.63±0.56 % ID/g
clearance from brain ([1]; high between 5 and 30 min, washed out between 30 and 60 min): suitable clearance from brain
